The results in this text go back to article PMC5883864 (Chemical Science, 2017).

The target in the experiment is glucose oxidase (GOx) (Aspergillus niger, UniProt P13006). Briefly: HRP-coupled chromogenic assay of H2O2. It is filed as biochemical. The settings on record: free enzyme; O2 co-substrate.
Sequence of glucose oxidase (GOx) (P13006 17-605): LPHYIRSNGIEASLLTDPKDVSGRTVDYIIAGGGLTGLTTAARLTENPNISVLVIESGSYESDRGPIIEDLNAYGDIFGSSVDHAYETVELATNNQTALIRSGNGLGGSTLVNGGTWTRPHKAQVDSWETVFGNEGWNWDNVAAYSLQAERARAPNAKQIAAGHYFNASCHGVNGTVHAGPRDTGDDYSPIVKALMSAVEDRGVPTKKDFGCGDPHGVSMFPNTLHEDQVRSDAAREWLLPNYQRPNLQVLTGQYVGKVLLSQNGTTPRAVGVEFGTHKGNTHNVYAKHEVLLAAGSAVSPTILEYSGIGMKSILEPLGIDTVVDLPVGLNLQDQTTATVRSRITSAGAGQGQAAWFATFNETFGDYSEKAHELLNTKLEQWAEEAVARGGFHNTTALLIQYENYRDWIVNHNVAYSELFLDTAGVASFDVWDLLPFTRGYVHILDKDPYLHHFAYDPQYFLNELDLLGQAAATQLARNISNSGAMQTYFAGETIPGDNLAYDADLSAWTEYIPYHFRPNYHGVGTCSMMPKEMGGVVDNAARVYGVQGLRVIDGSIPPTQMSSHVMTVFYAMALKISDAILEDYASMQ

In the case of `OC[C@H]1OC(O)[C@H](O)[C@@H](O)[C@@H]1O` (stereo partly shown) [glucose], the KM result is “glucose diffuses in and one of the products, namely hydrogen peroxide, must diffuse out”.
